One data set deals with Helicobacter pylori. In words: Antibacterial activity (in vitro), agar plate dilution method, clinical isolates (18 strains). Particulars: 18 clinical isolates, 37°C, 8% CO₂, 3-4 days. It is filed as cell-based. The method, then:
Antibacterial activity (in vitro) of the compound of the present invention against Helicobacter pylori was determined by the following agar plate dilution method. […] The cultures were diluted with Brucella broth to give a concentration of approximately 10⁶ cell/ml. The diluted bacterial solution was spot inoculated with a microplanter on an agar plate containing 2-fold dilution concentration series of the test compound. The cells were incubated at 37°C under 8% CO₂ for 3-4 days. The minimum inhibitory concentration (MIC) in respective strains was determined, based on which MIC₅₀ and MIC₉₀ were calculated.

Data set [1] deals with Candida albicans IFO 1060. In words: Antifungal spectrum, agar plate dilution MIC. Format: cell-based. The settings on record: IFO1060, 37°C, 8% CO₂, 3-4 days.
Data set [2] deals with Escherichia coli NIHJ JC-2. In words: Antibacterial spectrum, agar plate dilution MIC. Particulars: NIHJJC2, 37°C, 8% CO₂, 3-4 days. Format: cell-based. The protocol:
(§1) The test bacterium precultured in Muller-Hinton liquid medium was diluted with the same medium to give a bacterial solution of about 10⁶ cell/ml for inoculation. The dilute bacterial solution was spot inoculated with a microplanter on an agar plate containing 2-fold dilution concentration series of the test compound and the cells were incubated at 37°C under 8% CO₂ for 3-4 days. The minimum inhibitory concentration (MIC) in respective strains was determined, based on which MIC was calculated.

For data set [3], the system named is Staphylococcus aureus FDA 209P. In words: Antibacterial spectrum, agar plate dilution MIC. Format: cell-based. The settings on record: FDA209P, 37°C, 8% CO₂, 3-4 days, read-out: MIC S. aureus. The method, then: as §1
In data set [4] the test system is Pseudomonas aeruginosa IFO 12582. In words: Antibacterial spectrum, agar plate dilution MIC. Particulars: IFO12582, 37°C, 8% CO₂, 3-4 days, read-out: MIC P. aeruginosa. It is filed as cell-based. The method, then: as §1
The nature of data set [5]: Aspirin/hydrochloric acid-induced gastric ulcer in rats. Format: in vivo. Particulars: for Ulcer index (mean±standard deviation): 30 min before aspirin 100 mg/kg, stomach removed 4 hours later, control 5.0±0.51; for Change (%): change of ulcer index versus control. The method, then:
Male rats weighing about 200 g (16 rats per group) were fasted for 20 hours and the test solution was orally administered to the rats. Thirty minutes later, aspirin (100 mg/kg) containing 0.3N hydrochloric acid was orally administered.
Four hours later, the stomach was removed and the area which developed ulcer was examined. A square root of the total ulcer area was taken as an ulcer index.

A short description of data set [6]: Acute toxicity in mice, observed for 5 days. Format: in vivo. The text has this:
As a result, no death case was found.

Structures are written as SMILES. Values after ≈ are worked out from the molar mass of the structure shown.

In the data set with Helicobacter pylori, `Cc1c(SCCN2CCc3ccccc3C2)ccnc1CSc1nc2ncccc2[nH]1` [Example 12, 2-((3-methyl-4-(2-(1,2,3,4-tetrahydroisoquinolin-2-yl)ethylthio)-2-pyridyl)methylthio)imidazo[5,4-b]pyridine] displayed an MIC50 of 0.012 µg/mL (≈ 0.0268 µM) and an MIC90 of 0.025 µg/mL (≈ 0.0558 µM).
The corresponding values for `Cc1c(OCCN(C)Cc2ccccc2)ccnc1C[S+]([O-])c1nc2ccccc2[nH]1` (centres unmarked) [Ref. Compound 2, 2-(3-methyl-4-(2-(N-benzyl-N-methylamino)ethoxy)-2-pyridyl)methylsulfinyl-1H-benzimidazole, reference compound] are 0.1 µg/mL (≈ 0.23 µM) and 0.2 µg/mL (≈ 0.46 µM).
In the case of `Cc1c(SC2CCN(Cc3ccccc3)CC2)ccnc1CSc1nc2ccccc2[nH]1` [Example 7, 2-(4-(1-benzyl-4-piperidyl)thio-3-methyl-2-pyridyl)methylthio-1H-benzimidazole], the MIC in data set [1], in data set [2], in data set [3] and in data set [4] was greater than 100 µg/mL throughout. Besides, in the data set with Helicobacter pylori, the MIC50 turned out to be 0.012 µg/mL (≈ 0.026 µM). Further, the MIC90 against Helicobacter pylori was 0.025 µg/mL (≈ 0.0543 µM).
In the data set with Helicobacter pylori, `Cc1c(OCCN2CCc3ccccc3C2)ccnc1CSc1nc2ccccc2[nH]1` [Ref. Compound 1, 2-(3-methyl-4-(2-(1,2,3,4-tetrahydroisoquinolin-2-yl)ethoxy)-2-pyridyl)methylthio-1H-benzimidazole, reference compound] yielded an MIC50 of 0.05 µg/mL (≈ 0.116 µM) and an MIC90 of 0.1 µg/mL (≈ 0.232 µM).
Consider `Cc1c(SCC[N+]2([O-])CCOCC2)ccnc1CSc1nc2ccccc2[nH]1` [Example 28, 4-(2-((2-(1H-benzimidazol-2-yl)thiomethyl-3-methyl-4-pyridyl)thio)ethyl)morpholine N-oxide], for which the MIC in data set [1], in data set [2], in data set [3] and in data set [4] was greater than 100 µg/mL in each case. Moreover, the MIC50 in the data set on Helicobacter pylori amounted to 0.025 µg/mL (≈ 0.06 µM). The compound also yielded an MIC90 against Helicobacter pylori of 0.025 µg/mL (≈ 0.06 µM).
On to `Cc1c(SCCN2CCOCC2)ccnc1CSc1nc2ccccc2[nH]1` [Example 1, 2-(3-methyl-4-(2-morpholinoethylthio)-2-pyridyl)methylthio-1H-benzimidazole], for which the “Ulcer index (mean±standard deviation)” value in data set [5] (10 mg/kg p.o.) was 3.1±0.33; in data set [5] (30 mg/kg p.o.) it was 2.3±0.49. The “Change (%)” value in data set [5] (10 mg/kg p.o.) was -37%; in data set [5] (30 mg/kg p.o.), -55%. For the same compound, the minimum inhibitory concentration (MIC) in data set [1], in data set [2], in data set [3] and in data set [4] was greater than 100 µg/mL each time. Moreover, the MIC50 in the data set with Helicobacter pylori is no more than 0.006 µg/mL. The compound also showed an MIC90 against Helicobacter pylori of 0.012 µg/mL (≈ 0.03 µM).
As for `Cc1c(SCCN(C)Cc2ccccc2)ccnc1CSc1nc2ccccc2[nH]1` [Example 3], the minimal inhibitory concentration (MIC) in data set [1], in data set [2], in data set [3] and in data set [4] was greater than 100 µg/mL each time. The compound further returned an MIC50 in the data set with Helicobacter pylori of 0.025 µg/mL (≈ 0.0575 µM). In addition, the MIC90 in the data set with Helicobacter pylori was 0.05 µg/mL (≈ 0.115 µM).
For the compound `Cc1c(SCCN2CCc3ccccc3C2)ccnc1CSc1nc2ccccc2[nH]1` [Example 2, 2-(3-methyl-4-(2-(1,2,3,4-tetrahydroisoquinolin-2-yl)ethylthio)-2-pyridyl)methylthio-1H-benzimidazole], the death entry in data set [6] (intraperitoneally 300 mg/kg) and in data set [6] (orally 1000 mg/kg) was “no death case” throughout. The minimal inhibitory concentration (MIC) in data set [1], in data set [2], in data set [3] and in data set [4] was greater than 100 µg/mL in each case. In the data set with Helicobacter pylori, the MIC50 was no more than 0.006 µg/mL. Also, the MIC90 with Helicobacter pylori was no more than 0.006 µg/mL.
In the data set with Helicobacter pylori, `Cc1c(OCCN2CCc3ccccc3C2)ccnc1C[S+]([O-])c1nc2ccccc2[nH]1` (centres unmarked) [Ref. Compound 3, 2-(3-methyl-4-(2-(1,2,3,4-tetrahydroisoquinolin-2-yl)ethoxy)-2-pyridyl)methylsulfinyl-1H-benzimidazole, reference compound] had an MIC50 of 0.05 µg/mL (≈ 0.112 µM) and an MIC90 of 0.1 µg/mL (≈ 0.224 µM).

Usually MIC50 stands for an inhibitory concentration at the 50% level, which refers to growth in some studies and to a panel of isolates in others. A lower MIC50 goes with greater potency. What is called MIC90 is an inhibitory concentration at the 90% level, which refers to growth in some studies and to a panel of isolates in others. A low value points to greater potency. Broadly, the MIC is the lowest concentration that inhibits growth of the organism.

The values are drawn from patent EP0644191A1, “PYRIDINE COMPOUND AND MEDICINAL USE THEREOF” (YOSHITOMI PHARMACEUTICAL INDUSTRIES, LTD., priority 1992, dated 1993).
